From patent US10919859B2, “Benzylaminopyridylcyclopropanecarboxylic acids, pharmaceutical compositions and uses thereof” (Boehringer Ingelheim International GmbH, priority 2017, dated 2021) come the findings set out here.

One series has as its target human GPR40 receptor (Homo sapiens (Human), UniProt O14842). Description: IP1 accumulation measurements using the IPOne assay system. It is filed as cell-based. The note with it: 1321N1 cells stably expressing human GPR40, 1 h at 37° C. The method, then: IP1 accumulation measurements using the IPOne assay system—1321N1 cells stably expressing human GPR40 receptor (Euroscreen, Belgium) are seeded 24 h before the assay in white 384-well plates in culture medium containing 10% FCS, 1% Na-Pyruvate and 400 μg/mL G418. IP1 is assayed according to the manufacturer's description (Cisbio Bioassays, France). In brief, the assay is started by substitution of the culture medium by stimulation buffer (Hepes 10 mM, CaCl2 1 mM, MgCl2 0.5 mM, KCl 4.2 mM, NaCl 146 mM, glucose 5.5 mM and LiCl 50 mM, pH 7.4). Cells are stimulated for 1 h at 37° C., 5% CO2 by addition of the compounds that are diluted in stimulation buffer containing LiCl. Assays are stopped by adding HTRF-conjugates (IP1-d2 and Anti-IP1 cryptate Tb) and lysis buffer, provided by the manufacturer. After an incubation time of 1 h at room temperature plates are measured using an EnVision™, Perkin Elmer. The obtained fluorescence ratios at 665/615 […] are then used to calculate the pEC50 values using Assay Explorer 3.3 Software (Accelrys, Inc.) by interpolation using an IP1 reference curve and subsequent sigmoidal curve fitting allowing for a variable hill slope.

The nature of series [1]: Aqueous solubility (buffer vs acetonitrile/water, LC-UV). The format is physicochemical. The conditions noted are these: for solubility at 24 h: aqueous buffer, kinetic from dmso stock, pH 2.2 buffer, 24 h shaking, 2.5% DMSO; for Solubility at pH value 2.2: pH 2.2. The method, then:
The aqueous solubility of the compounds of the invention is determined by comparing the amount dissolved in buffer to the amount in an acetonitrile/water (1/1) solution. Starting from a 10 mM DMSO stock solution aliquots are diluted with acetonitrile/water (1/1) or buffer, respectively. After 24 h of shaking, the solutions are filtrated and analyzed by LC-UV. The amount dissolved in buffer is compared to the amount in the acetonitrile solution.

Setting [2] is: reference examples of WO 2013/178575.

pEC50: −log10 of the molar value. Converted amounts (≈) assume the structure as drawn. Some results are limits rather than exact numbers.

Chain of human GPR40 receptor (O14842 whole entry): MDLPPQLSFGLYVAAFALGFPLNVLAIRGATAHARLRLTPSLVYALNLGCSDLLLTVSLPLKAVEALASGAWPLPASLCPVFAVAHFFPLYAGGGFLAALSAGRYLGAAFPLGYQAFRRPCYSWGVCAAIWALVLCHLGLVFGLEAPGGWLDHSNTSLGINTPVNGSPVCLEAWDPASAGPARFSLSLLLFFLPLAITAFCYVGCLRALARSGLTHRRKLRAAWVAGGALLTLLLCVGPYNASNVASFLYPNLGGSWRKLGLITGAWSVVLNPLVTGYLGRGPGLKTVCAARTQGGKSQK

A word on the pEC50: it is the negative decadic logarithm of the EC50, by convention in mol/L. One may read the solubility as the dissolved amount per volume that the medium holds. In the case of `Cc1cc(OCCCS(C)(=O)=O)cc(C)c1-c1cccc(CNc2ccc([C@H]3CC3C(=O)O)nc2)c1` (stereo partly shown) [Example 1], the negative logarithm of the EC50 (pEC50) on human GPR40 receptor was 7.30. In addition, the solubility at 24 h in series [1] (examples in this invention) came out at 83 µg/mL (≈ 163 µM).

As to `CC(C)(O)CCOc1ccc(-c2cc(CNc3ccc([C@H]4C[C@@H]4C(=O)O)nc3)ccc2C(F)(F)F)cc1` [Example 2, (1S,2S)-2-(5-{[4′-(3-Hydroxy-3-methyl-butoxy)-6-trifluoromethyl-biphenyl-3-ylmethyl]-amino}-pyridin-2-yl)-cyclopropanecarboxylic acid], the pEC50 on human GPR40 receptor was 7.77. In addition, in series [1] (examples in this invention), the concentration in solution (solubility at 24 h) came to 72 µg/mL (≈ 140 µM).

Take `O=C(O)[C@H]1C[C@@H]1c1ccc(NCc2ccc(C(F)(F)F)c(-c3ccc(OCC4CC4)cc3)c2)cn1` [Example 3, (1S,2S)-2-{5-[(4′-Cyclopropylmethoxy-6-trifluoromethyl-biphenyl-3-ylmethyl)-amino]-pyridin-2-yl}-cyclopropanecarboxylic acid]: the pEC50 on human GPR40 receptor was 7.66. This compound also yielded a solubility at 24 h in series [1] (examples in this invention) of 22 µg/mL (≈ 45.6 µM).

`O=C(O)[C@H]1C[C@@H]1c1ccc(NCc2ccc(C(F)(F)F)c(-c3ccc(OC(F)(F)F)cc3)c2)cn1` [Example 4, (1S,2S)-2-{5-[(4′-Trifluoromethoxy-6-trifluoromethyl-biphenyl-3-ylmethyl)-amino]-pyridin-2-yl}-cyclopropanecarboxylic acid] had a negative logarithm of the EC50 (pEC50) at human GPR40 receptor of 7.36. The amount in solution in series [1] (examples in this invention) (solubility at 24 h) came to 14 µg/mL (≈ 28.2 µM).

At human GPR40 receptor, `Cc1cc(OCCC(C)(C)O)cc(C)c1-c1cc(CNc2ccc([C@H]3C[C@@H]3C(=O)O)nc2)ccc1C(F)(F)F` [Example 5] showed a negative-log EC50 (pEC50) of 7.92. Besides, the solubility at 24 h in series [1] (examples in this invention) is < 1 µg/mL.

Compound `COc1ccc(-c2ccc(-c3cc(CNc4ccc([C@H]5C[C@@H]5C(=O)O)nc4)c(F)cc3F)cc2)nn1` [Example 6, (1S,2S)-2-(5-{[4,6-Difluoro-4′-(6-methoxy-pyridazin-3-yl)-biphenyl-3-ylmethyl]-amino}-pyridin-2-yl)-cyclopropanecarboxylic acid] had a pEC50 at human GPR40 receptor of 7.19. The compound also came in with a solubility at 24 h in series [1] (examples in this invention) of 56 µg/mL (≈ 115 µM).

With `COc1ccc(-c2ccc(-c3cc(CNc4ccc([C@H]5C[C@@H]5C(=O)O)nc4)c(F)cc3F)cc2)nc1` [Example 7, (1S,2S)-2-(5-{[4,6-Difluoro-4′-(5-methoxy-pyridin-2-yl)-biphenyl-3-ylmethyl]-amino}-pyridin-2-yl)-cyclopropanecarboxylic acid], at human GPR40 receptor, the pEC50 was 7.57. In series [1] (examples in this invention), this compound gave a solubility at 24 h of 77 µg/mL (≈ 158 µM).

Turning to `Cc1cc(N)ccc1-c1cc(CNc2ccc([C@H]3C[C@@H]3C(=O)O)nc2)c(F)cc1F` [Example 8, (1S,2S)-2-{5-[(4′-Amino-4,6-difluoro-2′-methyl-biphenyl-3-ylmethyl)-amino]-pyridin-2-yl}-cyclopropanecarboxylic acid], at human GPR40 receptor, the negative logarithm of the EC50 (pEC50) was 6.90. The solubility at 24 h in series [1] (examples in this invention) is > 96 µg/mL.

`O=C(O)[C@H]1C[C@@H]1c1ccc(NCc2cc(-c3ccc(O)c(Cl)c3)c(F)cc2F)cn1` [Example 9, (1S,2S)-2-{5-[(3′-Chloro-4,6-difluoro-4′-hydroxy-biphenyl-3-ylmethyl)-amino]-pyridin-2-yl}-cyclopropanecarboxylic acid] gave a negative-log EC50 (pEC50) on human GPR40 receptor of 6.03. The solubility at 24 h in series [1] (examples in this invention) amounted to 58 µg/mL (≈ 135 µM).

On human GPR40 receptor, `COc1c(F)cc(-c2cc(CNc3ccc([C@H]4C[C@@H]4C(=O)O)nc3)c(F)cc2F)cc1F` [Example 10, (1S,2S)-2-{5-[(4,6,3′,5′-Tetrafluoro-4′-methoxy-biphenyl-3-ylmethyl)-amino]-pyridin-2-yl}-cyclopropanecarboxylic acid] had a pEC50 of 7.28. In series [1] (examples in this invention), this compound came in with a solubility at 24 h of 61 µg/mL (≈ 137 µM).

The term Solubility denotes the dissolved amount per volume that the medium holds. Low readings indicate a poorly soluble substance, high ones a readily soluble substance. Take `Cc1cc(-c2nnn(C)n2)cc(C)c1-c1ccc(F)c(CNc2ccc([C@H]3C[C@@H]3C(=O)O)nc2)c1` [Example 11]: on human GPR40 receptor, the negative-log EC50 (pEC50) was 8.10. Further, the “Solubility at pH value 2.2” value in series [1] was determined as 56 μg/mL.

For the compound `Cc1cc(OCc2ccccc2)cc(C)c1-c1ccc(F)c(CNc2ccc([C@H]3C[C@@H]3C(=O)O)nc2)c1` [Example 12], the pEC50 at human GPR40 receptor is 7.36. In addition, the “Solubility at pH value 2.2” value in series [1] was 27 μg/mL.

At human GPR40 receptor, `Cc1cc(OCC(C)(C)C#N)cc(C)c1-c1ccc(F)c(CNc2ccc([C@H]3C[C@@H]3C(=O)O)nc2)c1` [Example 13] gave a pEC50 of 7.23. The “Solubility at pH value 2.2” value in series [1] amounted to 49 μg/mL.

On to `Cc1cc(OCC(=O)O)cc(C)c1-c1ccc(F)c(CNc2ccc([C@H]3C[C@@H]3C(=O)O)nc2)c1` [Example 14], for which the pEC50 at human GPR40 receptor is 5.35. Also, the “Solubility at pH value 2.2” value in series [1] is given as 71 μg/mL.

The compound `Cc1cc(-c2ccn(C)c(=O)c2)cc(C)c1-c1ccc(F)c(CNc2ccc([C@H]3C[C@@H]3C(=O)O)nc2)c1` [Example 16] had a pEC50 on human GPR40 receptor of 7.54. Moreover, the “Solubility at pH value 2.2” value in series [1] was 79 μg/mL.

As to `Cc1cc(-c2ccn(C)c(=O)c2)cc(C)c1-c1ccc(F)c(CNc2ccc([C@H]3C[C@@H]3C(=O)O)nc2)c1` [Example 17], the pEC50 at human GPR40 receptor was 7.74. Further, in series [1], the “Solubility at pH value 2.2” value amounted to 73 μg/mL.

Turning to `Cc1cc(-c2cc(=O)n(C)cn2)cc(C)c1-c1ccc(F)c(CNc2ccc([C@H]3C[C@@H]3C(=O)O)nc2)c1` [Example 18], the pEC50 on human GPR40 receptor was 7.64. Besides, the “Solubility at pH value 2.2” value in series [1] turned out to be 72 μg/mL.

Take `Cc1cc(OCCC(C)(C)O)cc(C)c1-c1ccc(F)c(CNc2ccc([C@H]3C[C@@H]3C(=O)O)nc2)c1` [Example 19]: on human GPR40 receptor, the negative-log EC50 (pEC50) is 7.57. For the same compound, in series [1], the “Solubility at pH value 2.2” value was determined as 81 μg/mL.

Regarding `Cc1cc(OC2CCOCC2)cc(C)c1-c1ccc(F)c(CNc2ccc([C@H]3C[C@@H]3C(=O)O)nc2)c1` [Example 20], the pEC50 on human GPR40 receptor was 7.46. Further, the “Solubility at pH value 2.2” value in series [1] was found to be 66 μg/mL.

As for `Cc1cc(OCC(C)(C)O)cc(C)c1-c1ccc(F)c(CNc2ccc([C@H]3C[C@@H]3C(=O)O)nc2)c1` [Example 21], the negative-log EC50 (pEC50) at human GPR40 receptor is 7.00. The “Solubility at pH value 2.2” value in series [1] was found to be 82 μg/mL.

At human GPR40 receptor, `Cc1cc(CO)cc(C)c1-c1ccc(F)c(CNc2ccc([C@H]3C[C@@H]3C(=O)O)nc2)c1` [Example 22] showed a pEC50 of 6.69. In addition, the “Solubility at pH value 2.2” value in series [1] is given as 48 μg/mL.

At human GPR40 receptor, `O=C(O)[C@H]1C[C@@H]1c1ccc(NCc2cc(-c3c(F)cc(F)cc3F)ccc2F)cn1` [Example 23] had a negative logarithm of the EC50 (pEC50) of 6.30. For the same compound, the “Solubility at pH value 2.2” value in series [1] was 53 μg/mL.

`Cc1cc(O[C@@H]2CCOC2)cc(C)c1-c1ccc(F)c(CNc2ccc([C@H]3C[C@@H]3C(=O)O)nc2)c1` [Example 24] showed a negative logarithm of the EC50 (pEC50) at human GPR40 receptor of 7.36. Moreover, the “Solubility at pH value 2.2” value in series [1] was found to be 64 μg/mL.

Turning to `Cc1cc(O[C@H]2CCOC2)cc(C)c1-c1ccc(F)c(CNc2ccc([C@H]3C[C@@H]3C(=O)O)nc2)c1` [Example 25], on human GPR40 receptor, the pEC50 is 7.55. Moreover, the “Solubility at pH value 2.2” value in series [1] is 69 μg/mL.

As for `Cc1cc(OCC2CCOC2)cc(C)c1-c1ccc(F)c(CNc2ccc([C@H]3C[C@@H]3C(=O)O)nc2)c1` (stereo partly shown) [Example 26], on human GPR40 receptor, the pEC50 was 7.41. Further, the “Solubility at pH value 2.2” value in series [1] was determined as 70 μg/mL.

`Cc1cc(C(N)=O)cc(C)c1-c1ccc(F)c(CNc2ccc([C@H]3C[C@@H]3C(=O)O)nc2)c1` [Example 27] had a pEC50 at human GPR40 receptor of 6.40. Also, the “Solubility at pH value 2.2” value in series [1] came out at 62 μg/mL.

Compound `COc1cc(OC)c(Cl)c(-c2ccc(F)c(CNc3ccc([C@H]4C[C@@H]4C(=O)O)nc3)c2)c1Cl` [Example 28] showed a negative logarithm of the EC50 (pEC50) at human GPR40 receptor of 7.52. For the same compound, in series [1], the “Solubility at pH value 2.2” value turned out to be 18 μg/mL.

`N#CC1(c2ccccc2-c2ccc(F)c(CNc3ccc([C@H]4C[C@@H]4C(=O)O)nc3)c2)CC1` [Example 29] had a negative-log EC50 (pEC50) at human GPR40 receptor of 6.16. In addition, the “Solubility at pH value 2.2” value in series [1] is listed as 57 μg/mL.

Turning to `O=C(O)[C@H]1C[C@@H]1c1ccc(NCc2cc(-c3c(Cl)cccc3Cl)ccc2F)cn1` [Example 30], the negative logarithm of the EC50 (pEC50) on human GPR40 receptor was 7.47. Also, in series [1], the “Solubility at pH value 2.2” value was 53 μg/mL.

`COc1cc(OC)c(-c2ccc(F)c(CNc3ccc([C@H]4C[C@@H]4C(=O)O)nc3)c2)c(OC)c1` [Example 31] gave a pEC50 on human GPR40 receptor of 6.34. For the same compound, the “Solubility at pH value 2.2” value in series [1] came to 88 μg/mL.

`Cc1cc(C(=O)NCC(C)(C)O)cc(C)c1-c1ccc(F)c2c1CC[C@H]2Oc1ccc([C@H]2C[C@@H]2C(=O)O)cc1` [WO 2013/178575 Example 15, reference compound]: in series [1] (setting [2]), the solubility at 24 h was < 1 µg/mL.

Take `Cc1cc(OCCC(C)(C)O)cc(C)c1-c1ccc(F)c2c1CC[C@H]2Oc1ccc([C@H]2C[C@@H]2C(=O)O)cc1` [WO 2013/178575 Example 17, reference compound]: the solubility at 24 h in series [1] (setting [2]) is < 1 µg/mL.

Consider `Cc1cc(-c2nnn(C)n2)cc(C)c1-c1ccc(F)c2c1CC[C@H]2Oc1ccc([C@H]2C[C@@H]2C(=O)O)cc1` [WO 2013/178575 Example 45, reference compound], for which, in series [1] (setting [2]), the solubility at 24 h is < 1 µg/mL.

Take `Cc1c(C#N)cccc1-c1ccc(F)c2c1CC[C@H]2Oc1ccc([C@H]2C[C@@H]2C(=O)O)cc1` [WO 2013/178575 Example 54, reference compound]: in series [1] (setting [2]), the solubility at 24 h was < 1 µg/mL.
